Assay [1] relates to A375 cells. As to the kind of experiment: A375 Crystal Violet (CV) Proliferation Assay [Assay 5]. The assay is classed as cell-based. The following applies: A-375, 96 h; A375 human melanoma cells (BRAF V600E), crystal violet staining, 4 days incubation. Here is the method:
Assay 5: A375 Crystal Violet (CV) Proliferation Assay:
Cell proliferation for A375 cells [human melanoma cell line, expressing mutant BRAF V600E] was measured by crystal violet (CV) staining: Cultivated human A375 cells were plated out in a density of 1500 cells/measurement point in 200 μl of growth medium (DMEM/HAMS F12 with 10% FBS and 2 mM Glutamine) in a 96-well multititer plate. After 24 hours, the cells from a plate (zero plate) were stained with crystal violet (see below), while the medium in the other plates was replaced by fresh culture medium (200 μl) to which the test substances had been added in various concentrations (0 μM, and in the range 0.3 nM-30 μM; the final concentration of the solvent dimethyl sulphoxide was 0.5%). The cells were incubated in the presence of the test substances for 4 days. The cell proliferation was determined by staining the cells with crystal violet: the cells were fixed by adding 20 μl/measurement point of an 11% glutaraldehyde solution at room temperature for 15 min. After the fixed cells had been washed three times with water, the plates were dried at room temperature. The cells were stained by adding 100 μl/measurement point of a 0.1% crystal violet solution (pH adjusted to pH 3 by adding acetic acid). After the stained cells had been washed three times with water, the plates were dried at room temperature. The dye was dissolved by adding 100 μl/measurement point of a 10% acetic acid solution, and the extinction was determined by photometry at a wavelength of 595 nm. The percentage change in cell growth was calculated by normalizing the measurements to the extinctions of the zero point plate (=0%) and the extinction of the untreated (0 μM) cells (=100%). The IC50 values were determined by means of a 4-parameter fit using the company's own software.

In assay [2] the test system is HCT116 cells. Nature of the assay: HCT116 Cell Titer Glo (CTG) Proliferation Assay [Assay 1]. In kind it is cell-based. The settings on record: HCT-116, HCT116 human colorectal cells, 72 hours incubation. The source says:
Cell Titer Glo Proliferation Assay
The adherent tumor cell proliferation assay used to test the compounds of the present invention involves a readout called Cell Titre-Glo developed by Promega (Cunningham, BA “A Growing Issue: Cell Proliferation Assays. Modern kits ease quantification of cell growth” The Scientist 2001, 15(13), 26, and Crouch, S P et al., “The use of ATP bioluminescence as a measure of cell proliferation and cytotoxicity” Journal of Immunological Methods 1993, 160, 8 1-88).
Assay 1: HCT116 Cell Titer Glo (CTG) Proliferation Assay:
(§1) HCT116 cells [human colorectal cell line, expressing mutant […]] were plated at a density of 3000 cells/well in 96 well black-clear bottom tissue culture plates (Costar 3603 black/clear bottom) in 100 μl/well DMEM medium (DMEM/Ham's F12) with 10% Fetal Bovine Serum (FBS) and stable Glutamine incubated at 37° C. Sister wells were plated in separate plate for time zero determination. All plates were incubated overnight at 37° C. Take down time zero plate: 100 μl/well CTG solution (Promega Cell Titer Glo solution) were added to time zero wells in sister plate; the plates were mixed for 2 min on orbital shaker to ensure cell lysis, incubated for 10 minutes, luminescence was read on VICTOR 3 (Perkin Elmer). Twenty-four hours after cell seeding, test compounds were diluted in 50 μl medium and were added at a final concentration range from as high 10 μM to as low 300 pM depending on the activities of the tested compounds in serial dilutions at a final DMSO concentration of 0.4%. Cells were incubated for 72 hours at 37° C. after addition of the test compound. Then, using a Promega Cell Titer Glo Luminescent® assay kit, 100 μl microliter lysis buffer containing of the enzyme luciferase and its substrate, luciferin mixture, were added to each well and incubated for 10 min at room temperature in the dark to stabilize luminescence signal. The samples were read on VICTOR 3 (Perkin Elmer) using Luminescence protocol. The percentage change in cell growth was calculated by normalizing the measurements to the extinctions of the zero point plate (=0%) and the extinction of the untreated (0 μM) cells (=100%). The IC50 values were determined by means of a 4-parameter fit using the company's own software.

Assay [3] deals with A549 cells. As to the kind of experiment: A549 Cell Titer Glo (CTG) Proliferation Assay [Assay 2]. In kind it is cell-based. The settings on record: A549 human non small cell lung cancer cells (K-Ras G12S), 72 hours incubation. Here is the method:
as §1
Assay 2: A549 Cell Titer Glo (CTG) Proliferation Assay:
A549 cells [human non small cell lung cancer cell line, expressing mutant K-Ras G12S] were seeded at a density of 2000 cells/well in 96 well black-clear bottom tissue culture plates (Costar 3603 black/clear bottom) in 100 μl/well DMEM medium (DMEM/Ham's F12) with 10% Fetal Bovine Serum (FBS) and stable Glutamine incubated at 37° C. Cell Titer Glo proliferation assays for A549 cells were performed with the same protocol as described afore for HCT116 cells.

The subject of assay [4] is MEK1/2. The following applies: MEK1/2 inhibitor, literature [17]; cited from earlier work.
Assay [5] has as its system colon cancer. The settings on record: oral treatment, mouse models, literature [18]; cited from earlier work.

Regarding `NC(=O)c1c(Nc2ccc(I)cc2F)cncc1Oc1ccc2oc(=O)[nH]c2c1` [Example 1, 3-[(2-fluoro-4-iodophenyl)amino]-5-[(2-oxo-2,3-dihydro-1,3-benzoxazol-5-yl)oxy]isonicotinamide], the IC50 in assay [1] stood at 2.31 nM; in assay [2], 45 nM; in assay [3], 59 nM.

Turning to `NC(=O)c1c(Nc2ccc(I)cc2F)cncc1Oc1cccc(N)c1` [Example 3, 3-(3-aminophenoxy)-5-[(2-fluoro-4-iodophenyl)amino]isonicotinamide], the IC50 in assay [1] was 0.676 nM; in assay [2], 214 nM; in assay [3] it was 377 nM.

In the case of `CC(C)S(=O)(=O)Nc1cccc(Oc2cncc(Nc3ccc(I)cc3F)c2C(N)=O)c1` [Example 4, 3-[(2-fluoro-4-iodophenyl)amino]-5-{3[(isopropylsulfonyl)amino]phenoxy}isonicotinamide], the IC50 in assay [1] is 0.411 nM; in assay [2] it was 11.1 nM; in assay [3], 14.3 nM.

As to `CS(=O)(=O)Nc1cccc(Oc2cncc(Nc3ccc(I)cc3F)c2C(N)=O)c1` [Example 5, 3-[(2-fluoro-4-iodophenyl)amino]-5-{3-[(methylsulfonyl)amino]phenoxy}isonicotinamide], the values for the IC50 in assay [1], in assay [2] and in assay [3] were 0.775 nM, 18.8 nM and 22.7 nM, respectively.

As for `CCS(=O)(=O)Nc1cccc(Oc2cncc(Nc3ccc(I)cc3F)c2C(N)=O)c1` [Example 6, 3-{3-[(ethylsulfonyl)amino]phenoxy}-5-[(2-fluoro-4-iodophenyl)amino]isonicotinamide], the IC50 was 15.3 nM in assay [1], 11 nM in assay [2] and 14.8 nM in assay [3].

As to `NC(=O)c1c(Nc2ccc(I)cc2F)cncc1Oc1cccc(NS(=O)(=O)C2CC2)c1` [Example 7, 3-{3-[(cyclopropylsulfonyl)amino]phenoxy}-5-[(2-fluoro-4-iodophenyl)amino]isonicotinamide], the IC50 in assay [1] stood at 15.2 nM; in assay [2], 9.71 nM; in assay [3] it was 17 nM.

For the molecule `CC(=O)Nc1cccc(Oc2cncc(Nc3ccc(I)cc3F)c2C(N)=O)c1` [Example 8, 3-(3-acetamidophenoxy)-5-[(2-fluoro-4-iodophenyl)amino]isonicotinamide], the values for the IC50 in assay [1], in assay [2] and in assay [3] were 4.92 nM, 195 nM and 335 nM, respectively.

Regarding `CCC(=O)Nc1cccc(Oc2cncc(Nc3ccc(I)cc3F)c2C(N)=O)c1` [Example 9, 3-[(2-fluoro-4-iodophenyl)amino]-5-[3-(propionylamino)phenoxy]isonicotinamide], the IC50 in assay [1] was 8.8 nM; in assay [2] it was 440 nM; in assay [3], 882 nM.

Turning to `CC(C)C(=O)Nc1cccc(Oc2cncc(Nc3ccc(I)cc3F)c2C(N)=O)c1` [Example 10, 3-[(2-fluoro-4-iodophenyl)amino]-5-[3-(isobutyrylamino)phenoxy]isonicotinamide], the IC50 in assay [1] is 21.5 nM; in assay [2] it was 1120 nM; in assay [3], 1670 nM.

`CC(C)(O)C(O)CCOc1cncc(Nc2ccc(I)cc2F)c1C(N)=O` (stereo not shown) [Example 12, 3-[(3,4-dihydroxy-4-methylpentyl)oxy]-5-[(2-fluoro-4-iodophenyl)amino]isonicotinamide] displayed an IC50 in assay [1] of 33.3 nM.

Take `C#Cc1ccc(Nc2cncc(Oc3cccc(NS(=O)(=O)CC)c3)c2C(N)=O)c(F)c1` [Example 14, 3-{3-[(ethylsulfonyl)amino]phenoxy}-5-[(4-ethynyl-2-fluorophenyl)amino]isonicotinamide]: the IC50 is 1.25 nM in assay [1], 33.6 nM in assay [2] and 49.8 nM in assay [3].

In turn, `COc1cncc(Nc2ccc(I)cc2F)c1C(N)=O` [Example 15, 3-[(2-fluoro-4-iodophenyl)amino]-5-methoxyisonicotinamide] came in with an IC50 in assay [1] of 118 nM.

For `O=C(NOCC1CC1)c1ccc(F)c(F)c1Nc1ccc(I)cc1Cl` [PD184352], in assay [4], the IC50 result is recorded as “low nanomolar range”. Further, in assay [5], the “colon cancer growth in vivo” value is on record as “inhibit colon cancer growth”.

These data come from patent US9045429B2, “Substituted phenoxypyridines” (Bayer Intellectual Property GmbH, priority 2010, dated 2015).
